We go through 2 molecules from paper PMC11912270, “Synthesis and SAR Studies of Acyl-Thiourea Platinum(II) Complexes Yield Analogs with Dual-Stage Antiplasmodium Activity” (ACS Medicinal Chemistry Letters, 2025).

pIC50: −log10 of the molar value. A value given as a limit tells only on which side of the number the result lay.

One assay has as its system PfK1. The following applies: cited from earlier work.
The next assay deals with Pf3D7 strain. Conditions: cited from earlier work.
For another assay, the system named is PfNF54. As to the kind of experiment: 72 h pLDH assay, PfNF54 (precursor compounds). In kind it is cell-based, Plasmodium falciparum. The method, then:
Lastly, the pharmacological effect of substitution with a methyl group at different positions on the bpy ring was determined (SAR4). Changing from the 4,4′-positions (C2) to the 5,5′-positions (C14) improved the PfNF54 activity by 5-fold, whereas changing to the 6,6′-positions (C15) decreased the activity by 2-fold.

The subject of assay [1] is Chinese hamster ovary (CHO) cell line. The experiment in a line: MTT cytotoxicity assay. The following applies: Cricetulus griseus, CHO, 48 h, read-out: CHO IC50. In kind it is cell-based. The method, then:
1.6.In vitro cytotoxicity assay
A 3-(4,5-dimethylthiazol-2-yl)-2,5-diphenyltetrazoliumbromide (MTT) assay was used to screen the metal complexes against the mammalian Chinese hamster ovarian (CHO) cell line.
A stock solution of each compound (2 mg/mL) in DMSO was prepared and kept at -20 °C until needed. Emetine was used as a reference drug. A starting concentration of 100 µg/mL was used, and serially diluted ten-fold using a complete medium to give the lowest concentration of 0.001 µg/mL (6 dilutions). The plates containing the CHO cells under drug pressure were […]
Plates containing the drug and cell suspension were developed by adding 25 μL of sterile MTT (Thermo Fisher Scientific) (25 µL) to each well, followed by 4 h […]
of incubation at room temperature in the dark. The plates were then centrifuged, and the supernatant was removed via aspiration. Sample absorbance was read at a wavelength of 540 […]
analysis via GraphPad Prism v.4.0 software. The IC50 values were determined for each compound were determined from the dose-response curves. […]
(Formazan colour is commonly taken as a measure of viable cells.)

ferroquine [FQ]: the “fold increase in activity compared to CQ” value in the assay with PfK1 was 25 fold; with Pf3D7 strain, 1.7 fold.

Consider `O=C(NC(=S)N(CCO)CCO)c1ccccc1` [compound 2], for which the pIC50 is under 5.30 in the assay on PfNF54 (Plasmodium falciparum, 72 h, read-out: PfNF54 IC50) and under 4.30 in assay [1]. The “inhibition of Pf proliferation” value in the assay on PfNF54 (maximum concentration of 5 μM, PfNF54) is “did not inhibit Pf proliferation”.

For orientation: pIC50 means the negative decadic logarithm of the IC50, by convention in mol/L.
